According to patent US20160046618A1, “Cyclopropyl Fused Thiazin-2-Amine Compounds as Beta-Secretase Inhibitors and Methods of Use” (AMGEN INC., priority 2014, published 2016):

Legend:
human recombinant BACE1 = human recombinant BACE1 (Homo sapiens (Human), UniProt P56817); experiment: In vitro enzymatic BACE1 FRET assay; assay type: biochemical; details: read-out: IC50 IP (μM) BACE1 enzyme
Procedure, shortened: (§1)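 Protease purified by Ni-NTA chromatography; start with FRET substrate (50 nM); incubate 1 h; quench with Tris to neutral pH; read fluorescence ex 488 / em 590 nm.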

human recombinant BACE2 = human recombinant BACE2 (Homo sapiens (Human), UniProt Q9Y5Z0); experiment: In vitro enzymatic BACE2 FRET assay; assay type: biochemical; details: read-out: IC50 IP (μM) BACE2 enzyme
Sequence of human recombinant BACE2 (Q9Y5Z0 63-518): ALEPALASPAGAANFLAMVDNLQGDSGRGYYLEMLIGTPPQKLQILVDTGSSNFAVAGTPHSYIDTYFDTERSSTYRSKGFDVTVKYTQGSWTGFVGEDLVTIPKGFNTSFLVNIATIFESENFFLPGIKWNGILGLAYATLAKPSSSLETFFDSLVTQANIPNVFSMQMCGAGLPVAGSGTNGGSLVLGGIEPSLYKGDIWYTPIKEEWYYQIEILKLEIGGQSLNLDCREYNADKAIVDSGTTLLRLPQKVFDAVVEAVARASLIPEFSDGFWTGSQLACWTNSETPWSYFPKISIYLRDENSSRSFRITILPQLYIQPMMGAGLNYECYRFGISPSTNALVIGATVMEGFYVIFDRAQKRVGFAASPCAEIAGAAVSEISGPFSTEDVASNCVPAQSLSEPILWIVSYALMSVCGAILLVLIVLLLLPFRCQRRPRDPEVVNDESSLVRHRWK
Procedure, shortened: as §1

Recombinant Cat D = Recombinant Cat D (Homo sapiens (Human), UniProt P07339); experiment: In vitro enzymatic Cathepsin D (Cat D) FRET assay; assay type: biochemical; details: read-out: IC50 IP (μM) CatD
Sequence of Recombinant Cat D (P07339 65-412): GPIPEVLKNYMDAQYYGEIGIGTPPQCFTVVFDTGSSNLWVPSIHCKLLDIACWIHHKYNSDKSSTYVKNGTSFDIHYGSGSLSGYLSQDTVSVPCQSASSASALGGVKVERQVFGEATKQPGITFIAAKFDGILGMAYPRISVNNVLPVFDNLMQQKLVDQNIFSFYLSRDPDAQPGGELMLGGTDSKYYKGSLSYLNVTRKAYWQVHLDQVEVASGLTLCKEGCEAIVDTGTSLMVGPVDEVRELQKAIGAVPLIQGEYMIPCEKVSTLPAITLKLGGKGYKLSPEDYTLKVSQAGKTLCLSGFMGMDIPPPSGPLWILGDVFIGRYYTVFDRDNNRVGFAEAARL
Procedure, shortened: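 Cleavage of a 20 nM fluorophore/quencher peptide by CHO-expressed recombinant Cat D proceeded for one hour at pH 3.5 (0.05 M citrate, 5 mM CHAPS, 10% DMSO final). Tris addition neutralized the pH to end the reaction. Fluorescence was then measured (ex 500 nm/em 580 nm).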

[1] = tested on: Aβ40 in conditioned medium of cells stably expressing Amyloid Precursor Protein (APP); experiment: In vitro BACE-1 cell-based assay (Aβ40 sandwich ELISA); details: read-out: IC50 IP (μM) BACE1 cell
Procedure, shortened: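 APP-expressing cells treated 24 h at 37 °C with compound in 10-point dose response (top 100 μM or 10 μM, 0.1% DMSO final). Secreted Aβ40 in conditioned medium quantified by sandwich ELISA (pAb40 capture, biotinylated 6E10 detection, time-resolved europium fluorescence); IC50 from percent inhibition versus concentration.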

Sequence of human recombinant BACE1 (P56817 46-501): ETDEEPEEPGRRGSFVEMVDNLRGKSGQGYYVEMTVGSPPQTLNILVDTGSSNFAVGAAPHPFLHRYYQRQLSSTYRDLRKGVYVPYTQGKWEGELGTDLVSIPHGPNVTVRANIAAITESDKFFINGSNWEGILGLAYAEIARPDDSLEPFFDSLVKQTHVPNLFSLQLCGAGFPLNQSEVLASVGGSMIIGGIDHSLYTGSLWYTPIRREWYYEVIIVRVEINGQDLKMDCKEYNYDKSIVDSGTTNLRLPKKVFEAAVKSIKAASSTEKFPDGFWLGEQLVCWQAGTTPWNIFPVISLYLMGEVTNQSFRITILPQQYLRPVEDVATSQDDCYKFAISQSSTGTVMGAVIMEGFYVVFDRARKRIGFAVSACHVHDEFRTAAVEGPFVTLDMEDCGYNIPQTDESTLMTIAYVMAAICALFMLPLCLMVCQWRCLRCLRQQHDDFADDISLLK

IC50 (human recombinant BACE1) [µM]	IC50 (human recombinant BACE2) [µM]	IC50 (Recombinant Cat D) [µM]	IC50 [1] [µM]	Compound
0.00119	0.036	1140	0.00593	C[C@]1(c2cc(Nc3nccc4cc(OCc5ncco5)cnc34)cnc2F)N=C(N)S[C@]2(CO)[C@H]1C2(F)F [Example 669, ((1S,5S,6R)-3-amino-7,7-difluoro-5-(2-fluoro-5-((3-(1,3-oxazol-2-ylmethoxy)-1,7-naphthyridin-8-yl)amino)-3-pyridinyl)-5-methyl-2-thia-4-azabicyclo[4.1.0]hept-3-en-1-yl)methanol]
0.000859	0.0628	543	0.00354	C[C@]1(c2cc(Nc3nccc4nc(OCc5ncco5)cnc34)ccc2F)N=C(N)S[C@@]2(C(=O)NC3CC3)C[C@H]21 [Example 796, (1S,5S,6S)-3-amino-N-cyclopropyl-5-(2-fluoro-5-((2-(1,3-oxazol-2-ylmethoxy)pyrido[3,4-b]pyrazin-5-yl)amino)phenyl)-5-methyl-2-thia-4-azabicyclo[4.1.0]hept-3-ene-1-carboxamide]
0.00161	0.00099	> 400	0.00347	COC[C@]12C[C@H]1[C@@](C)(c1cc(NC(=O)c3ccc(Cl)cn3)cc(C)c1F)N=C(N)S2 [Example 1066, N-(3-((1S,5S,6S)-3-amino-1-(methoxymethyl)-5-methyl-2-thia-4-azabicyclo[4.1.0]hept-3-en-5-yl)-4-fluoro-5-methylphenyl)-5-chloro-2-pyridinecarboxamide]
0.00167	0.0221	496	0.00967	C#CCOc1cnc(C(=O)Nc2ccc(F)c([C@@]3(C)N=C(N)S[C@@]4(C(F)F)C[C@@H]34)c2)c(C)c1 [Example 686, N-(3-((1S,5S,6S)-3-amino-1-(difluoromethyl)-5-methyl-2-thia-4-azabicyclo[4.1.0]hept-3-en-5-yl)-4-fluorophenyl)-3-methyl-5-(2-propyn-1-yloxy)-2-pyridinecarboxamide]
0.00176	0.222	324	0.00692	CC1(NC(=O)[C@]23C[C@H]2[C@@](C)(c2cc(NC(=O)c4cnc(OCC(F)(F)F)cn4)ccc2F)N=C(N)S3)CC1 [Example 1041, (1S,5S,6S)-3-amino-5-(2-fluoro-5-(5-(2,2,2-trifluoroethoxy)pyrazine-2-carboxamido)phenyl)-5-methyl-N-(1-methylcyclopropyl)-2-thia-4-azabicyclo[4.1.0]hept-3-ene-1-carboxamide]
0.00624	0.00378	571	0.00933	C[C@]1(c2cc(Nc3nccc4cc(C#N)cnc34)cnc2F)N=C(N)S[C@@]2(CF)C[C@H]21 [Example 604, 8-((5-((1S,5S,6S)-3-amino-1-(fluoromethyl)-5-methyl-2-thia-4-azabicyclo[4.1.0]hept-3-en-5-yl)-6-fluoro-3-pyridinyl)amino)-1,7-naphthyridine-3-carbonitrile]
0.00391	0.0267	2100	0.008	C#CCOc1cnc(C(=O)Nc2ccc(F)c([C@@]3(C)N=C(N)S[C@@]4(COC)C[C@H]43)c2)c(C)c1 [Example 683, N-(3-((1S,5S,6S)-3-amino-1-(methoxymethyl)-5-methyl-2-thia-4-azabicyclo[4.1.0]hept-3-en-5-yl)-4-fluorophenyl)-3-methyl-5-(2-propyn-1-yloxy)-2-pyridinecarboxamide]
0.00139	0.0541	959	0.00144	COC[C@]12C[C@H]1[C@@](C)(c1cc(NC(=O)c3cnc(OCc4noc(C)n4)cn3)cc(F)c1F)N=C(N)S2 [Example 1013, N-(3-((1S,5S,6S)-3-amino-1-(methoxymethyl)-5-methyl-2-thia-4-azabicyclo[4.1.0]hept-3-en-5-yl)-4,5-difluorophenyl)-5-((5-methyl-1,2,4-oxadiazol-3-yl)methoxy)-2-pyrazinecarboxamide]
0.000567	< 0.00203	> 400	0.00363	C[C@]1(c2cc(NC(=O)c3ccc(Cl)cn3)ccc2F)N=C(N)S[C@@]2(C#N)C[C@H]21 [Example 929, N-(3-((1S,5S,6S)-3-amino-1-cyano-5-methyl-2-thia-4-azabicyclo[4.1.0]hept-3-en-5-yl)-4-fluorophenyl)-5-chloro 2-pyridinecarboxamide]
0.000316	0.091	363	0.0133	Cc1nc(COc2cnc3c(Nc4cc(F)c(F)c([C@@]5(C)N=C(N)S[C@@]6(C(F)F)C[C@@H]56)c4)nccc3n2)no1 [Example 883, N-(3-((1S,5S,6S)-3-amino-1-(difluoromethyl)-5-methyl-2-thia-4-azabicyclo[4.1.0]hept-3-en-5-yl)-4,5-difluorophenyl)-2-((5-methyl-1,2,4-oxadiazol-3-yl)methoxy)pyrido[3,4-b]pyrazin-5-amine]
0.000867	0.127	209	0.165	C[C@H](Oc1cnc2c(Nc3cc(F)c(F)c([C@@]4(C)N=C(N)S[C@@]5(C#N)C[C@H]54)c3)nccc2n1)c1ncco1 [Example 939, (1S,5S,6S)-3-amino-5-(2,3-difluoro-5-((2-((1S)-1-(1,3-oxazol-2-yl)ethoxy)pyrido[3,4-b]pyrazin-5-yl)amino)phenyl)-5-methyl-2-thia-4-azabicyclo[4.1.0]hept-3-ene-1-carbonitrile]
0.387	2.35	998	0.624	CC(C)NC(=O)c1cnc2c(Nc3cnc(F)c([C@@]4(C)N=C(N)S[C@@]5(C(F)F)C[C@@H]45)c3)nccc2c1 [Example 656, 8-((5-((1S,5S,6S)-3-amino-1-(difluoromethyl)-5-methyl-2-thia-4-azabicyclo[4.1.0]hept-3-en-5-yl)-6-fluoro-3-pyridinyl)amino)-N-(1-methylethyl)-1,7-naphthyridine-3-carboxamide]
0.000199	0.00428	21.2	0.000298	C#CCOc1cnc(C(=O)Nc2cc(F)c(F)c([C@@]3(C)N=C(N)S[C@@]4(C(N)=O)C[C@H]43)c2)cn1 [Example 919, (1S,5S,6S)-3-amino-5-(2,3-difluoro-5-(((5-(2-propyn-1-yloxy)-2-pyrazinyl)carbonyl)amino)phenyl)-5-methyl-2-thia-4-azabicyclo[4.1.0]hept-3-ene-1-carboxamide]
0.000774	0.00425	462	0.0013	C#CCOc1cnc2c(Nc3cnc(F)c([C@@]4(C)N=C(N)S[C@@]5([C@H](O)C(F)(F)F)C[C@H]54)c3)nccc2n1 [Example 659, (1R)-1-((1S,5S,6S)-3-amino-5-(2-fluoro-5-((2-(2-propyn-1-yloxy)pyrido[3,4-b]pyrazin-5-yl)amino)-3-pyridinyl)-5-methyl-2-thia-4-azabicyclo[4.1.0]hept-3-en-1-yl)-2,2,2-trifluoroethanol]
0.0412	0.978	1650	1.76	COC[C@]12C[C@H]1[C@@](C)(c1cc(Nc3nccc4cc(OCc5ncc(Cl)s5)cnc34)cc(F)c1F)N=C(N)S2 [Example 735, N-(3-((1S,5S,6S)-3-amino-1-(methoxymethyl)-5-methyl-2-thia-4-azabicyclo[4.1.0]hept-3-en-5-yl)-4,5-difluorophenyl)-3-((5-chloro-1,3-thiazol-2-yl)methoxy)-1,7-naphthyridin-8-amine]
0.00085	< 0.00203	> 400	0.000487	C[C@]1(c2cc(NC(=O)c3ccc(Cl)cn3)cc(CO)c2F)N=C(N)S[C@@]2(CO)C[C@H]21 [Example 858, N-(3-((1S,5S,6S)-3-amino-1-(hydroxymethyl)-5-methyl-2-thia-4-azabicyclo[4.1.0]hept-3-en-5-yl)-4-fluoro-5-(hydroxymethyl)phenyl)-5-chloropicolinamide]
0.000317	0.0159	55.6	0.00621	C#CCOc1cnc(C(=O)Nc2cc(F)c(F)c([C@@]3(C)N=C(N)S[C@@]4(CNC(C)=O)C[C@H]43)c2)cn1 [Example 1042, N-(3-((1S,5S,6S)-1-(acetamidomethyl)-3-amino-5-methyl-2-thia-4-azabicyclo[4.1.0]hept-3-en-5-yl)-4,5-difluorophenyl)-5-(prop-2-yn-1-yloxy)pyrazine-2-carboxamide]
0.00747	0.0102	381	0.00413	C[C@H](O)[C@]12C[C@H]1[C@@](C)(c1cc(Nc3ncnc4cc(C#N)cnc34)cc(F)c1F)N=C(N)S2 [Example 907, 4-((3-((1S,5S,6S)-3-amino-1-(1-hydroxyethyl)-5-methyl-2-thia-4-azabicyclo[4.1.0]hept-3-en-5-yl)-4,5-difluorophenyl)amino)pyrido[3,2-d]pyrimidine-7-carbonitrile]
0.0027	0.081	> 400	0.0047	COC[C@]12C[C@H]1[C@@](C)(c1cc(NC(=O)c3cnc(OCCF)cn3)cc(F)c1F)N=C(N)S2 [Example 1064, N-(3-((1S,5S,6S)-3-amino-1-(methoxymethyl)-5-methyl-2-thia-4-azabicyclo[4.1.0]hept-3-en-5-yl)-4,5-difluorophenyl)-5-(2-fluoroethoxy)-2-pyrazinecarboxamide]
